From PubChem BioAssay AID743417 (Broad Institute, 2014)
Inconclusive results are not listed. Activity calls are given as the source filed them.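 Rule for the calls: active = compounds lowering the luciferase signal with a fitted half-maximal dose at most twice their top valid dose (cut at about 30 µM in these data); inconclusive = flat fits with moderate signal loss, or poor fits; inactive = the rest.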

Test system: Clone20 osteoblast Shn3 3'UTR firefly luciferase, 24 h
Experiment: Shn3 3'UTR reporter inhibitors, dose response, cell-based, Clone20 osteoblasts, luminescence, dry powder, set 2 (AID 743417)

| SMILES | AC50 |
| --- | --- |
| COC(=O)C1=C(c2ccc(OCc3ccccc3)cc2)C[C@@H]2CC[C@H]1N2C(=O)NCCCCc1ccccc1 | 2.8 µM |
| CCOC(=O)CS(=O)(=O)c1nc(-c2ccccc2)cc(C(F)(F)F)n1 | 3.42 µM |
| Cc1cccc(C)c1NC(=O)CN(C)C(=O)c1cc(S(=O)(=O)N(C)C)ccc1N1CCCC1 | 27.1 µM |
| Cc1ccc2[nH]c3c(N4CCc5ccccc5C4)ncnc3c2c1 | 1.18 µM |
| O=C(Cc1ccc(Cl)cc1Cl)Nc1ccncc1 | 2.56 µM |
| C=C1C(=O)C23C(O)C1CCC2C12COC3(O)C(O)C1C(C)(C)CCC2O (stereo not drawn) | 3.3 µM |
| O=C(Nc1nc2cc3c(cc2s1)OCCO3)C1=COCCO1 | 2.17 µM |
| O=C(Sc1cccc2cccnc12)c1ccccc1Br | 0.383 µM |
| CC(C)(C)n1nnnc1C(c1ccc(C(F)(F)F)cc1)N(Cc1ccc(F)cc1)Cc1ccco1 (stereo not drawn) | 10.1 µM |
| Cc1ccc(NC(=O)c2nc(S(=O)(=O)Cc3ccccc3)ncc2Cl)cc1 | 3.42 µM |
| COc1cc2ccnc(Cc3cccc(OC)c3OC)c2cc1OC | 4.64 µM |
| O=C(Nc1ccc(N2CCOCC2)cc1)c1ccc(Cl)c(S(=O)(=O)N2CCCC2)c1 | 2.17 µM |
| Cc1ccc(CS(=O)(=O)c2ncc(Cl)c(C(=O)Nc3nnc(C)s3)n2)cc1 | 0.639 µM |
| CCOC(=O)C1(Cc2ccc(Cl)cc2)CCN(C(C)Cc2ccc(O)c(OC)c2)CC1 (stereo not drawn) | 1.33 µM |
| COc1ccc(C(NC(=O)c2cccnc2)c2cc(Cl)c3cccnc3c2O)cc1OC (stereo not drawn) | 1.88 µM |
| Cc1cc(C(=O)COC(=O)c2ccccc2Br)c(C)n1CC1CCCO1 (stereo not drawn) | > 70 µM (inactive) |
| COc1ccc(NC(=O)Cn2nnc(-c3ccccc3NS(=O)(=O)c3ccccc3)n2)cc1 | 0.485 µM |
| Cn1c(=O)[nH]c(=O)c2c1nc([N+](=O)[O-])n2Cc1ccccc1 | 1.9 µM |
| O=C(/C=C/c1ccc(F)cc1)NC(=S)NNC(=O)c1cnccn1 | 1.39 µM |
| Cc1cc(C(=O)NC2CCCc3c2cnn3-c2ccc(C)c(C)c2)n(C)n1 (stereo not drawn) | < 0.26 µM |
| O=C(Nc1ccc(N2CCN(C(=O)c3ccc(Cl)cc3)CC2)cc1)c1ccc2c(c1)OCCO2 | 2.54 µM |
| COCCOc1nc2c(c(=O)n(C)c(=O)n2C)n1Cc1cccc(OC)c1 | 2.23 µM |
| Cn1c(=O)c2c(nc(NCc3ccco3)n2C/C=C/c2ccccc2)n(C)c1=O | 1.08 µM |
| CCOC(=O)c1c(C)[nH]c2c1-c1ccccc1C(=O)C2=O | 0.496 µM |
| Fc1ccc(NC(=S)N2CCCN(c3ccc(C(F)(F)F)cn3)CC2)c(F)c1 | 3.71 µM |
| Cc1ccc(F)cc1CNC(=O)c1cc(COc2ccc3ncccc3c2)on1 | 4.88 µM |

| SMILES | AC50 |
| --- | --- |
| Cc1nc2ccccc2n1Cc1ccc(Cl)cc1 | 1.46 µM |
| CCN1CCN(Cc2ccc(NC(=O)c3ccc(C)c(NC(=O)C(=O)c4c[nH]c5ccccc45)c3)cc2C(F)(F)F)CC1 | 7.49 µM |
| C=C1CC(Cn2cc(Br)c(=O)[nH]c2=O)(c2ccc(-c3ccccc3)cc2)OC1=O (stereo not drawn) | 2.67 µM |
| CC(C)(C)C(=O)Nc1cc2nn(-c3ccccc3)nc2cc1Cl | 5.16 µM |
| FC(F)(F)c1nc(-c2cccs2)ncc1-c1nnnn1-c1ccc(Cl)cc1 | 2.1 µM |
| Cc1cccc(C(=O)Nc2ccc(C(=O)/C=C/c3ccncc3)cc2)c1 | 3.41 µM |
| COC(=O)c1c(-c2cccc3ccccc23)csc1NC(=O)Cc1ccc(OC)c(OC)c1 | 5.43 µM |
| CN(C)C1=NC[C@H](Cc2ccccc2)N1CCCCc1ccccc1 | 8.01 µM |
| CC(C)c1ccc(NC(=O)Nc2nc(C(N)c3ccccc3)cs2)cc1 (stereo not drawn) | 2.48 µM |
| COc1ccccc1OCC(O)Cn1c(=N)n(Cc2ccccc2)c2ccccc21 (stereo not drawn) | 4.01 µM |
| CC(C)(C)c1ccc(NC(=O)COc2ccc(-n3ccnc3)cc2)cc1 | 5.27 µM |
| CCCCc1ccc(NC(=O)C(=O)NCCN2CCN(Cc3ccc([N+](=O)[O-])cc3)CC2)cc1 | 1.13 µM |
| CCCCCc1nc2c(c(=O)c3ccccc3n2C)c(=O)n1C1CCCCCC1 | 8.21 µM |
| O=C1c2c(O)ccc(O)c2C(=O)c2c(NCCNCCO)ccc(NCCNCCO)c21 | 0.658 µM |
| COc1ccc(C2/C=C\CN(C(=O)c3ccc(C)cc3)[C@H](Cc3ccccc3)C(=O)N2Cc2ccc(F)cc2)cc1 (stereo partly drawn) | 0.772 µM |
| COc1ccc(COc2ccccc2C(=O)NCc2ccccc2)cc1F | 4.76 µM |
| COc1ccc(CNc2ncnc3ccccc23)cc1 | 0.674 µM |
| O=C(NCc1cccc(Cl)c1)c1cc(COc2ccc3ncccc3c2)on1 | 3.05 µM |
| Cc1cc(Cl)n2c(nc3ccccc32)c1C#N | 1.85 µM |
| CCOC(=O)c1nc(S(C)(=O)=O)ncc1Cl | 6.37 µM |
| COc1ccc(CN2CCC(N(CCc3ccccc3)Cc3ccccc3)CC2)c(OC)c1 | 8.1 µM |
| O=c1[nH]c2ccccc2n1C1CCN(C(c2cccs2)c2nnnn2Cc2ccccc2)CC1 (stereo not drawn) | 2.98 µM |
| CC(=O)N1c2ccc(S(=O)(=O)N3CCC(C(=O)Nc4cccc(F)c4)CC3)cc2CC1C (stereo not drawn) | 4.54 µM |
| CCCCC(=O)NC(c1ccc(C(C)C)cc1)c1ccc2cccnc2c1O (stereo not drawn) | 0.57 µM |
| O=C(NCc1ccc2c(c1)OCO2)c1nc(S(=O)(=O)Cc2ccccc2)ncc1Cl | 6.4 µM |
| CN1/C(=C\C(=O)CN2C(=O)NC3(CCCCCC3)C2=O)C(C)(C)c2ccccc21 | 2.66 µM |

| SMILES | AC50 |
| --- | --- |
| Cc1cc2nc(C)n(CCCNC(=O)Nc3cccc4ccccc34)c2cc1C | 3.19 µM |
| Cc1ccc(Oc2ccc(OCC(=O)Nc3ccncc3)cc2)cc1 | 1.55 µM |
| O=C(Nc1ccc(F)cc1)Nc1cc(OCC(F)(F)F)cc(OCC(F)(F)F)c1 | 2.46 µM |
| Cc1nc2nc(C)n(CCN3CCOCC3)c(=O)c2c(-c2cccc([N+](=O)[O-])c2)c1C(=O)CCCCCCCCCCN1CCC(c2ccccc2)(c2ccccc2)CC1 | 7.38 µM |
| CC1=C(CO)C(=O)OC([C@@H](C)C2CC[C@H]3C4C[C@H]5O[C@]56[C@@H](O)C=CC(=O)[C@]6(C)C4CC[C@]23C)C1 (stereo partly drawn) | 0.674 µM |
| CCCn1c(C)cc(C(=O)CN2C(=O)c3ccccc3S2(=O)=O)c1C | 2.98 µM |
| Nc1nc(N)c(-c2cccc(C(F)(F)F)c2)c(Cc2cccc(C(F)(F)F)c2)n1 | 3.6 µM |
| COc1ccc(OCc2cccc(C(=O)O)c2)cc1 | 1.39 µM |
| CCN(CC)S(=O)(=O)c1cc(NC(=O)C2CCN(c3ncnc4sc(C)c(C)c34)CC2)ccc1Cl | 5.08 µM |
| CC[C@@H](C(=O)[C@@H](C)[C@@H](O)[C@H](C)CCc1ccc(C)c(O)c1C(=O)O)[C@H]1O[C@](CC)([C@H]2CC[C@](O)(CC)[C@H](C)O2)C[C@@H]1C | 7.93 µM |
| COc1ccccc1CNc1nc(NCc2ccccc2OC)c2sccc2n1 | 6.33 µM |
| O=C(CN1C(=O)c2ccccc2S1(=O)=O)c1ccc2c(c1)OCCCO2 | 0.262 µM |
| CCSc1nnc(NC(=O)c2nc(S(=O)(=O)Cc3ccc(F)cc3)ncc2Cl)s1 | 4.96 µM |
| CN1/C(=C/C(=O)c2nc(S(C)(=O)=O)ncc2Cl)C(C)(C)c2ccccc21 | 5.21 µM |
| CN(C)c1ncnc2c1C(c1ccccc1)C(C)(C)O2 (stereo not drawn) | > 70 µM (inactive) |
| Cc1ccc(OC(=O)CCC(=O)Oc2ccc(C)cc2C)c(C)c1 | 3.51 µM |
| C[C@@H]1COC(=O)[C@@H](NC(=O)OCC2c3ccccc3-c3ccccc32)C/C=C\C[C@@H](CC(=O)N(CCO)Cc2ccccc2)C(=O)N1 | 1.89 µM |
| CCC(OC(=O)c1ccc(S(C)(=O)=O)c([N+](=O)[O-])c1)C(=O)NC1C2CC3CC(C2)CC1C3 (stereo not drawn) | 1.66 µM |
| Cc1cccc(NS(=O)(=O)c2ccc(C3CCCCC3)cc2)c1 | 5.13 µM |
| Cc1nc2ccccc2cc1OCc1ccc(F)cc1 | 1.7 µM |
| Cc1cc(Cl)c(S(=O)(=O)N2CCSCC2)cc1OCC(=O)NC1CCCCC1 | 4.11 µM |
| O=C(NNC(=O)C1CCN(S(=O)(=O)c2ccc(Cl)cc2)CC1)c1ccccc1O | 18.5 µM |
| CCC1CCCCN1S(=O)(=O)c1ccc(NC(=O)c2nc(S(C)(=O)=O)ncc2Cl)cc1 (stereo not drawn) | 0.341 µM |
| COc1cc(NS(=O)(=O)c2ccc(C)cc2C)cc(OC)c1OC | 4.95 µM |
| CC(C)(C)C(=O)Nc1cc(S(=O)(=O)N2CCCCC2)ccc1N1CCCCC1 | 23.1 µM |
| Cc1ccc(N/C(N)=N/c2nc(C)cc(N3CCCCC3)n2)c(C)c1 | 0.891 µM |

| SMILES | AC50 |
| --- | --- |
| CC1Cc2ccccc2N1Cc1cccc(S(=O)(=O)N(C)C)c1 (stereo not drawn) | 33 µM |
| COCCC1CCCCN1C(=O)c1cc(COc2ccc(-n3cncn3)cc2)on1 (stereo not drawn) | 0.57 µM |
| CC(C)(C)n1nnnc1C(c1ccc(C(F)(F)F)cc1)N(Cc1ccccc1)Cc1ccco1 (stereo not drawn) | 4.74 µM |
| Cc1ccc(NC(=O)C2CCN(S(=O)(=O)c3ccc(N4CCCC4=O)cc3)CC2)cc1Cl | 0.549 µM |
| O=C(/C=C/c1cccc([N+](=O)[O-])c1)n1cnc2ccccc21 | 0.594 µM |
| CC(C)(C)c1ccc(CN2C3=NCCCN3c3ccccc32)cc1 | 0.836 µM |
| C[C@@H]1CN([C@@H](C)CO)C(=O)c2cc(NC(=O)Nc3ccc(F)cc3)ccc2O[C@@H]1CN(C)Cc1ccc(Oc2ccccc2)cc1 | 9.38 µM |
| Cc1cc2sc3ccc(C#CC4(O)CCCCC4)cc3c(=O)c2cc1C | < 0.26 µM |
| CCOC(=O)c1cnc(-n2nc(C)cc2C)nc1NNc1cc(C)nc(-c2ccccc2)n1 | 3.31 µM |
| Nc1nonc1C(=O)NCCNCc1cc(Br)ccc1OCc1ccccc1F | 2.5 µM |
| COc1ccc(CN(C)c2ccc(S(=O)(=O)N3CCN(C)CC3)cc2[N+](=O)[O-])cc1OC | 0.691 µM |
| O=C(CN1C(=O)c2ccccc2S1(=O)=O)c1ccc(Cl)cc1Cl | 3.53 µM |
| CN(C)c1nc(-c2ccccn2)nnc1-c1ccccc1 | 3.3 µM |
| COc1ccc(CNCCc2c(C)[nH]c3ccc(OC(F)(F)F)cc23)c(OC)c1 | 0.963 µM |
| CCN(CC)c1ccc(CNc2nc3ccccc3n2CCN2CCCCC2)cc1 | 2.64 µM |
| CCCC(=O)NC(c1ccccc1Cl)c1ccc2cccnc2c1O (stereo not drawn) | 1.21 µM |
| Cc1cc(C)c2nc(NNC(=O)c3ccc(S(=O)(=O)N4CCc5ccccc5C4)cc3)sc2c1 | 1.98 µM |
| Cc1sc2ncnc(N3CCN(S(=O)(=O)c4ccc(Br)cc4)CC3)c2c1C | 3.59 µM |
| COc1ccccc1CNc1nc(Nc2cccc(-c3cnco3)c2)c2sccc2n1 | 5.61 µM |
| Cc1cc(N2CCCC2=O)cc(C)c1S(=O)(=O)NCCOc1ccc(C(C)(C)C)cc1 | 1.15 µM |
| CC(=O)O[C@H]1CC[C@@]2(C)C(=CC[C@H]3[C@@H]4CC[C@H](C(C)=O)[C@@]4(C)CC[C@@H]32)C1 | 28.5 µM |
| O=C(OCc1ccccc1)c1ccc(NCc2cc(O)ccc2O)cc1 | 0.711 µM |
| Cn1nc(-c2ccccn2)nc2c(=O)n(C)c(=O)nc1-2 | 0.493 µM |
| COc1ccc(S(=O)(=O)N2CCN(c3cc(-c4ccccc4)nc4ncnn34)CC2)cc1 | 3.89 µM |
| Fc1ccc(/C=C2\CCCC3=C2Nc2ncnn2C3c2ccc(F)cc2)cc1 (stereo not drawn) | 8.47 µM |
